Measured values: US20200405659A1, “COMPOSITION CONTAINING 2,3-BUTANEDIOL AS ACTIVE INGREDIENT” (GS CALTEX CORPORATION, priority 2018, published 2020)

Legend:
[1] = DPPH free radical elimination activity (anti-oxidation ratio); settings: for change of anti-oxidation ratio with the increase of the concentration: from 0.1 wt % to 1 wt %
Procedure: To evaluate the anti-oxidative effects of 2,3-butanediol, the elimination activity of free radicals was measured using a 2,2-diphenyl-1-picrylhydrazyl (DPPH) analysis method. Particularly, an anti-oxidation ratio was calculated by Equation 2 below.
Anti-oxidation ratio (%)=[[(absorbance of specimen treated group−absorbance of specimen untreated group)/(absorbance of negative control group−absorbance of specimen untreated group)]×100 [Equation 2]
i) specimen untreated group: group allowing reaction of ultrapure water and methanol
ii) specimen treated group: group allowing reaction of specimen by each concentration and DPPH
iii) negative control group: group allowing reaction of ultrapure water and DPPH
According to the concentration shown in Table 2 below, diols were diluted with a methanol solvent to prepare specimens, and each specimen was reacted with DPPH, and absorbance was measured, and the anti-oxidation ratios calculated are shown in Table 2 below.

[2] = tested on: collagenase (MMP-1); experiment: Collagenase (MMP-1) content in CCD-986SK cells (Human MMP-1 ELISA kit); type: cell-based; settings: for Collagenase (MMP-1)(pg/mL) / MMP-1 content relative to untreated control (%): 48 hours; for MMP-1 content relative to untreated control (%): specimen-free = 100.00, decreased percent means collagenase restrained; for restraining effects of collagenase: compared with the Comparative Examples using 1,3-butanediol or 1,3-propanediol
Procedure: The anti-wrinkle effects of 2,3-butanediol were evaluated as the restraining effects of the decomposition of interstitial collagen, etc., by decreasing skin collagenase (for example, MMP-1).
To evaluate the anti-wrinkle effects of 2,3-butanediol, serum-free mediums composed of 99 mL of Dulbecco's modified eagle medium (Gibco) and 1 mL of Penicillin-streptomycin (Gibco), diluted with 2R,3S-butanediol, 2R,3R-butanediol, 1,3-butanediol and 1,3-propanediol in the concentrations shown in Table 3 below, were prepared.
In addition, cells CCD-986SK (ACTT CRL-6323™) were seeded in well plates by 1 mL with 5×10^4, and cultivated at 37° C. in a 5% CO2 cultivator for 24 hours. The cultivated cells were replaced with the mediums of the Examples and Comparative Examples and cultivated at 37° C. in a 5% CO2 cultivator for 48 hours.
A cell dissolution material was recovered, the protein content was measured using BSA protein assay reagent kit (Thermo scientific PIERCE, USA), the collagenase (MMP-1) content was measured suing Human MMP-1 ELISA kit (Sigma), and the results are shown in Table 4 below.
That is, the decreased percent calculated means that collagenase is effectively restrained.

Structure (SMILES)	Anti-oxidation ratio (%) ([1]; 0.1 wt % in methanol)	Anti-oxidation ratio (%) ([1]; 0.5 wt % in methanol)	Anti-oxidation ratio (%) ([1]; 1.0 wt % in methanol)	change of anti-oxidation ratio with the increase of the concentration [1]	Collagenase (MMP-1)(pg/mL) ([2]; 0.50 wt % in serum-free medium)	MMP-1 content relative to untreated control (%) ([2]; 0.50 wt %)	Collagenase (MMP-1)(pg/mL) ([2]; 0.05 wt % in serum-free medium)	MMP-1 content relative to untreated control (%) ([2]; 0.05 wt %)	Collagenase (MMP-1)(pg/mL) ([2]; 0.10 wt % in serum-free medium)	MMP-1 content relative to untreated control (%) ([2]; 0.10 wt %)	Collagenase (MMP-1)(pg/mL) ([2]; 1.00 wt % in serum-free medium)	MMP-1 content relative to untreated control (%) ([2]; 1.00 wt %)	restraining effects of collagenase [2]	production of collagenase ([2]; concentration of 1 wt %)
CC(O)CCO (stereo not shown) [1,3-butanediol]	2.89%	1.46%	1.00%	rather decreased	569.1 pg/mL	90.82%	–	–	–	–	–	–	–	–
OCCCO [1,3-propanediol]	5.34%	2.17%	−1.23%	rather decreased	602.9 pg/mL	94.23%	–	–	–	–	–	–	–	–
C[C@@H](O)[C@@H](C)O [2R,3R-butanediol]	–	–	–	–	327.7 pg/mL	50.73%	390.9 pg/mL	56.16%	443.0 pg/mL	63.45%	159.1 pg/mL	27.29%	markedly increased	markedly reduced
C[C@H](O)[C@@H](C)O [2R,3S-butanediol]	2.23%	3.95%	–	increased	324.2 pg/mL	56.69%	370.2 pg/mL	60.78%	364.7 pg/mL	59.80%	321.4 pg/mL	62.63%	markedly increased	–
